Data as given in ChEMBL document CHEMBL1201862, “PubChem BioAssay data set” (2004).
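Cultured in 96-well plates, cells were exposed to test compound for 48 hours across five concentrations. Here, GI50 denotes the concentration required for 50% inhibition of growth.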 Activity calls are given as the source filed them. Cut-off read from the data, not from the text of the source: active = GI50 up to about 1.1 µM and inactive = higher.

Tests used:
Assay in all cases: NCI anticancer screen, dose series, 48 h
TK-10 = tested on: TK-10
SF-539 = tested on: SF-539
Hs-578T = tested on: Hs-578T
A498 = tested on: A498
DU-145 = tested on: DU-145
786-0 = tested on: 786-0
A549 = tested on: A549
SF-268 = tested on: SF-268
OVCAR-4 = tested on: OVCAR-4
CAKI-1 = tested on: CAKI-1
OVCAR-5 = tested on: OVCAR-5
SK-MEL-5 = tested on: SK-MEL-5
BT-549 = tested on: BT-549
SK-OV-3 = tested on: SK-OV-3
SR = tested on: SR
NCI-H23 = tested on: NCI-H23
MOLT-4 = tested on: MOLT-4
HL-60 = tested on: HL-60
Malme-3M = tested on: Malme-3M
SK-MEL-2 = tested on: SK-MEL-2

Compound	GI50 (TK-10)	GI50 (SF-539)	GI50 (Hs-578T)	GI50 (A498)	GI50 (DU-145)	GI50 (786-0)	GI50 (A549)	GI50 (SF-268)	GI50 (OVCAR-4)	GI50 (CAKI-1)	GI50 (OVCAR-5)	GI50 (SK-MEL-5)	GI50 (BT-549)	GI50 (SK-OV-3)	GI50 (SR)	GI50 (NCI-H23)	GI50 (MOLT-4)	GI50 (HL-60)	GI50 (Malme-3M)	GI50 (SK-MEL-2)
Cc1ccc(/N=N/C(=N\c2ccc(Cl)cc2)c2ccc(N(CCC#N)CCC#N)cc2)cc1	21.7 µM (inactive)	47.4 µM (inactive)	33.7 µM (inactive)	> 100 µM (inactive)	37.7 µM (inactive)	52 µM (inactive)	29.6 µM (inactive)	48.1 µM (inactive)	51.4 µM (inactive)	> 100 µM (inactive)	> 100 µM (inactive)	2.63 µM (inactive)	16.7 µM (inactive)	> 100 µM (inactive)	22 µM (inactive)	48.6 µM (inactive)	> 100 µM (inactive)			
CCCCC(C#N)(OP1(=O)OC(c2ccccc2)C(C)N1C)c1ccccc1 (centres undefined)	18.9 µM (inactive)	15.5 µM (inactive)	16.3 µM (inactive)	18.9 µM (inactive)	19.7 µM (inactive)	17.3 µM (inactive)	20.1 µM (inactive)	17.4 µM (inactive)		18.7 µM (inactive)	17.1 µM (inactive)	17.3 µM (inactive)	20.3 µM (inactive)	19.5 µM (inactive)	19.9 µM (inactive)	19.7 µM (inactive)	15.7 µM (inactive)	14.4 µM (inactive)	15.6 µM (inactive)	19.2 µM (inactive)
O=C(CNc1ccccc1Cl)Nn1c(-c2ccccc2)nc2ccccc2c1=O	44 µM (inactive)	21.6 µM (inactive)	25.6 µM (inactive)	49.8 µM (inactive)	> 100 µM (inactive)	19.7 µM (inactive)	44.8 µM (inactive)	30.1 µM (inactive)	26.4 µM (inactive)		> 10 µM (inactive)	10.2 µM (inactive)	12.8 µM (inactive)	38.1 µM (inactive)	23.4 µM (inactive)	16.4 µM (inactive)	13.2 µM (inactive)	22.4 µM (inactive)		
O=S(=O)(NC1CCCCC1)c1ccc2c(c1)OCCOCCOCCOCCO2	> 100 µM (inactive)	> 100 µM (inactive)	> 100 µM (inactive)	> 100 µM (inactive)	> 100 µM (inactive)	> 100 µM (inactive)	> 100 µM (inactive)	> 100 µM (inactive)		> 100 µM (inactive)		> 100 µM (inactive)	> 100 µM (inactive)	> 100 µM (inactive)	> 100 µM (inactive)	> 100 µM (inactive)	> 100 µM (inactive)	> 100 µM (inactive)	> 100 µM (inactive)	
COc1cc(S(=O)(=O)Nc2ccc(-c3csc(/N=C\c4ccccc4)n3)cc2)ccc1Cl		35.1 µM (inactive)	53.3 µM (inactive)	37.5 µM (inactive)	85.1 µM (inactive)	81.3 µM (inactive)	> 100 µM (inactive)	32 µM (inactive)	79.4 µM (inactive)	> 100 µM (inactive)	> 100 µM (inactive)	52.7 µM (inactive)	41.4 µM (inactive)	> 100 µM (inactive)	29.8 µM (inactive)	60.7 µM (inactive)	12.7 µM (inactive)	25.6 µM (inactive)	> 100 µM (inactive)	25.2 µM (inactive)
CC(C)(C)NC(=O)[C@H]1CC[C@H]2[C@@H]3CC=C4NC(=O)CC[C@]4(C)[C@H]3CC[C@]12C	46.8 µM (inactive)	> 100 µM (inactive)	50.9 µM (inactive)	> 100 µM (inactive)	> 100 µM (inactive)	90.2 µM (inactive)	> 100 µM (inactive)	54.6 µM (inactive)	50.1 µM (inactive)		> 100 µM (inactive)	> 100 µM (inactive)	> 100 µM (inactive)	> 100 µM (inactive)	> 100 µM (inactive)	52 µM (inactive)	> 100 µM (inactive)	> 100 µM (inactive)	> 100 µM (inactive)	> 100 µM (inactive)
CC(=O)OCC(C)(COC(C)=O)N1C(=O)C2C3c4ccccc4C(c4ccccc43)C2C1=O (centres undefined)	> 100 µM (inactive)	> 100 µM (inactive)	> 100 µM (inactive)	> 100 µM (inactive)	> 100 µM (inactive)	> 100 µM (inactive)	> 100 µM (inactive)	> 100 µM (inactive)		> 100 µM (inactive)	> 100 µM (inactive)	> 100 µM (inactive)	> 100 µM (inactive)	> 100 µM (inactive)	> 100 µM (inactive)	> 100 µM (inactive)	> 100 µM (inactive)	> 100 µM (inactive)		
COC(COC(=O)N1CCN(C=O)CC1)C1=C(N2CC2)C(=O)C(C)=C(N2CC2)C1=O (centres undefined)	0.579 µM (active)	0.0632 µM (active)	1.26 µM (inactive)	1.51 µM (inactive)	0.0472 µM (active)	0.0644 µM (active)	0.167 µM (active)	0.12 µM (active)	0.585 µM (active)	0.12 µM (active)	2.56 µM (inactive)	0.172 µM (active)	0.455 µM (active)	0.195 µM (active)	< 0.01 µM (active)	0.0675 µM (active)	0.138 µM (active)		0.336 µM (active)	0.705 µM (active)
